Data taken from the supplement of paper PMC8253809.

Tests used:
Assay in all cases: area under dose-response curve of % growth inhibition (log2 RLU vs DMSO / staurosporine), 1e-11 to 1e-4 M (% x log10 M); higher = more growth inhibition
HGGX6 = test system: HGGX6 (H3.3 G34R paediatric high-grade glioma line)
In short: (§1)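 Patient-derived pHGG/DIPG cell lines and astrocyte controls were grown on 1% Geltrex-coated 384-well plates and exposed to a 10-point threefold dilution series (mean top concentration 35 μM), in triplicate. Exposure was 7 days (iAstro 3 days) at 37 °C, 5% CO2. CellTiter-Glo luminescence was log2-transformed and normalised per plate to % activity between solvent and positive controls. Area under the curve was taken by trapezoid rule from the fitted log-logistic curve, or from a smoothing spline when the sigmoid fit failed.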

DIPGX29 = test system: DIPGX29 (H3.3 K27M diffuse intrinsic pontine glioma line)
In short: as §1

DIPGX37 = test system: DIPGX37 (H3.3 K27M diffuse intrinsic pontine glioma line)
In short: as §1

HGGX39 = test system: HGGX39 (paediatric high-grade glioma line)
In short: as §1

Row | Compound | area under dose-response curve (HGGX6) | area under dose-response curve (DIPGX29) | area under dose-response curve (DIPGX37) | area under dose-response curve (HGGX39)
1 | CCc1nc(N)nc(N)c1-c1ccc(Cl)cc1 [PYRIMETHAMINE] | 26.9 | 25 | 6.34 | 26.5
2 | COc1cc(OC)c2c(=O)[nH]c(-c3cc(C)c(OCCO)c(C)c3)nc2c1 [RVX-208] | 12 | 5.91 | 2.33 | 8.2
3 | Cc1c(F)ccc(C(=O)Nc2cc([N+](=O)[O-])ccc2N2CCN(C)CC2)c1Cl [WDR5-C47] | 7.74 | 4.98 | 27.1 | 5.16
4 | C=C(c1ccc(C(=O)O)cc1)c1cc2c(cc1C)C(C)(C)CCC2(C)C [BEXAROTENE] | 13.2 | 21.8 | 6.14 | 28.4
5 | CCCS(=O)(=O)Nc1ccc(F)c(C(=O)c2c[nH]c3ncc(-c4ccc(Cl)cc4)cc23)c1F [VEMURAFENIB] | 8.94 | 5.27 | 2.53 | 7.32
6 | COc1ccc(CCc2nc3cc(-c4c(C)noc4C)ccc3n2C[C@H](C)N2CCOCC2)cc1Cl [SGC-CBP30] | 11.7 | 7.64 | 13.9 | 14
7 | O=C(/C=C/N1C[C@H]2C[C@@H]1CN2c1ccccn1)c1ccccc1O [PFI-3] | 11.5 | 9.58 | 20.6 | 10.6
8 | C/C(=C\C(=O)Nc1ccccc1C(=O)O)c1ccc2ccccc2c1 [BIBR-1532] | 8.79 | 0 | 20.5 | 0
9 | CCCOc1ccn2c(C(C)=O)cc(-c3ccccc3S(C)(=O)=O)c2c1 [GSK2801] | 21.4 | 19.1 | 8.52 | 10.4
10 | CC1CS(=O)(=O)CCN1/N=C/c1ccc([N+](=O)[O-])o1 (centres undefined) [NIFURTIMOX] | 22 | 18.2 | 17.9 | 23.6
11 | COc1cc(-c2cn(C)c(=O)c3cnccc23)c(OC)cc1CN(C)C [BI-9564] | 3.53 | 12.6 | 11.6 | 5.33
12 | Cc1oncc1C(=O)Nc1ccc(C(F)(F)F)cc1 [LEFLUNOMIDE] | 2.22 | 5.84 | 2.94 | 4.82
13 | CCC1(c2ccc(N)cc2)CCC(=O)NC1=O (centres undefined) [AMINOGLUTETHIMIDE] | 14.3 | 7.58 | 4.75 | 3.33
14 | Nc1nc(=O)n([C@H]2C[C@H](O)[C@@H](CO)O2)cc1F [5-FLUORODEOXYCYTIDINE] | 28.8 | 42.2 | 10.7 | 39.7
15 | N[C@H](CCC(=O)N[C@@H](Cc1c[nH]c2ccccc12)C(=O)O)C(=O)O [GOLOTIMOD] | 5.25 | 8.23 | 15.2 | 0.705
16 | COc1ccc2c(c1OC)C(=O)O[C@@H]2[C@H]1c2c(cc3c(c2OC)OCO3)CCN1C [NOSCAPINE] | 3.61 | 3.97 | 4.1 | 3.21
17 | O=c1[nH]c(=O)n([C@H]2C[C@H](O)[C@@H](CO)O2)cc1/C=C/Br [BRIVUDINE] | 2.8 | 6.05 | 9.7 | 1.13
18 | COc1ccccc1C(=O)Nc1cc2c(cc1N1CCCC1)n(C)c(=O)n2C [PFI-4] | 18.2 | 21.9 | 6.98 | 20.5
19 | CC(C)Oc1ccc(-c2c[nH]cc2CN(C)CCN)cc1 [MS023] | 14.7 | 10.9 | 10.6 | 8.58
20 | CCN(CCO)CCCC(C)Nc1ccnc2cc(Cl)ccc12 (centres undefined) [HYDROXYCHLOROQUINE] | 1.95 | 5.15 | 8.17 | 0
21 | CC1(C)CCC(C)(C)c2cc(NC(=O)c3ccc(C(=O)O)cc3)ccc21 [TAMIBAROTENE] | 28.3 | 19.3 | 37.3 | 44.5
22 | c1cc(CN2CCCNCCNCCCNCC2)ccc1CN1CCCNCCNCCCNCC1 [PLERIXAFOR] | 3.55 | 16.6 | 32.1 | 21
23 | CC(=O)Oc1ccc(C(c2ccc(OC(C)=O)cc2)c2ccccn2)cc1 [BISACODYL] | 10.4 | 2.56 | 11.1 | 27.8
24 | Nc1ncnc2c1c(COc1cccc(Cl)c1)nn2C1CCOCC1 | 14.3 | 10 | 32.2 | 23.5
25 | CCCCCCNC(=O)n1cc(F)c(=O)[nH]c1=O [CARMOFUR] | 15.3 | 20.1 | 30.3 | 20.2
26 | O=C(O)CNC(=O)c1c(O)c2ccccc2n(Cc2ccccc2)c1=O [IOX2] | 12.6 | 9.33 | 6.07 | 12.7

Row | Compound | area under dose-response curve (HGGX6) | area under dose-response curve (DIPGX29) | area under dose-response curve (DIPGX37) | area under dose-response curve (HGGX39)
27 | O=C(c1cccc(Br)c1)N1CCC(N2CCCC2)CC1 [UNC926] | 8.91 | 8.49 | 0 | 8.09
28 | O=C(O)c1ccc(O)c2ncccc12 [IOX1] | 5.89 | 3.7 | 9.36 | 2.63
29 | COc1cc2nccc(Oc3ccc(NC(=O)Nc4cc(C)on4)c(Cl)c3)c2cc1OC [TIVOZANIB] | 42.5 | 14.6 | 31.3 | 21.7
30 | COc1ccccc1S(=O)(=O)Nc1ccc2c(c1)CN(C)C(=O)N2 [PFI-1] | 17.1 | 23.7 | 27.8 | 20.6
31 | c1ccc([C@@H]2C[C@H]2NC2CCNCC2)cc1 [GSK-LSD1] | 0 | 0 | 5.85 | 0
32 | CCN(C(=O)CO)[C@H]1CN(/C(=N\C#N)Nc2cccc(OC(F)F)c2)N=C1c1ccc(Cl)c(Cl)c1 [BAY598] | 8.24 | 18.1 | 16.3 | 10.8
33 | CCC(=O)N1CCOc2c(cc(-c3ccc(OC)c(OC)c3)cc2OC[C@H]2CCCN(C)C2)C1 [I-CBP112] | 16.4 | 14.1 | 18 | 2.35
34 | COc1cccc2c1c(O)c(C(=O)N(C)c1ccc(C(F)(F)F)cc1)c(=O)n2C [TASQUINIMOD] | 0 | 0 | 4.17 | 0
35 | Nc1nc(Cl)nc2c1ncn2[C@H]1C[C@H](O)[C@@H](CO)O1 [CLADRIBINE] | 39.3 | 54.8 | 32.4 | 40.8
36 | C[C@@H]1C[C@H]2[C@@H]3CCC4=CC(=O)C=C[C@]4(C)[C@@]3(Cl)[C@@H](O)C[C@]2(C)[C@@]1(OC(=O)c1ccco1)C(=O)CCl [MOMETASONE FUROATE] | 8.37 | 42.1 | 40.5 | 20.8
37 | CO[C@H]1O[C@@H]2O[C@@]3(C)CC[C@H]4[C@H](C)CC[C@@H]([C@H]1C)[C@@]24OO3 [ARTEMETHER] | 17.6 | 5.53 | 3.95 | 14.4
38 | COc1cc(C(C)=O)ccc1OCCCN1CCC(c2noc3cc(F)ccc23)CC1 [ILOPERIDONE] | 5.98 | 15.1 | 13.2 | 10.3
39 | COc1cc(C#N)ccc1S(=O)(=O)Nc1ccc2c(c1)cc(C)c(=O)n2C [NI-57] | 15.9 | 13.6 | 7.6 | 22.9
40 | O=C(O)c1ccc(CN2CCC(CN[C@@H]3C[C@H]3c3ccccc3)CC2)cc1 | 0.903 | 1.9 | 20.1 | 2.17
41 | CC(C)N(C[C@H]1O[C@@H](n2cnc3c(N)ncnc32)[C@H](O)[C@@H]1O)[C@H]1C[C@@H](CCc2nc3cc(C(C)(C)C)ccc3[nH]2)C1 [PINOMETOSTAT] | 4.37 | 6.21 | 14.5 | 0.36
42 | O=c1[nH]c(=O)n([C@H]2C[C@H](O)[C@@H](CO)O2)cc1C(F)(F)F [TRIFLURIDINE] | 3.99 | 7.68 | 22.2 | 21
43 | CCc1ccc(CCOc2ccc(CC3SC(=O)NC3=O)cc2)nc1 (centres undefined) [PIOGLITAZONE] | 11.5 | 10.8 | 35.1 | 11.2
44 | CC(N[C@H]1C[C@@H]1c1ccccc1)c1ccc2c(c1)OCCO2 (some centres undefined) [LSD1-C76] | 7.75 | 6.56 | 24 | 12
45 | CC(=O)O[C@H]1CC[C@@]2(C)C(=CC[C@@H]3[C@@H]2CC[C@]2(C)C(c4cccnc4)=CC[C@@H]32)C1 [ABIRATERONE ACETATE] | 0 | 0 | 20.1 | 6.95
46 | COc1ccccc1C(=O)Nc1cc2c(cc1N1CCCCC1)n(C)c(=O)n2C [GSK-5959] | 45.8 | 8.32 | 76.9 | 41.9
47 | CN1[C@@H]2CC[C@H]1C[C@@H](OC(=O)c1c[nH]c3ccccc13)C2 [TROPISETRON] | 10.2 | 18.7 | 33.4 | 19.5
48 | COc1cc(NCc2ccc3nc(N)nc(N)c3c2C)cc(OC)c1OC [TRIMETREXATE] | 31.9 | 51 | 11.6 | 28.7
49 | O=C(c1cncc(Br)c1)N1CCC(N2CCCC2)CC1 [UNC669] | 0 | 0 | 20.1 | 0.456
50 | CN(Cc1cnc2nc(N)nc(N)c2n1)c1ccc(C(=O)N[C@@H](CCC(=O)O)C(=O)O)cc1 [METHOTREXATE] | 58.8 | 44.1 | 30.5 | 39.9
51 | O=C(c1ccc(C(=O)N2CCC(N3CCCC3)CC2)c(Nc2ccccc2)c1)N1CCC(N2CCCC2)CC1 [UNC1215] | 6.97 | 4.19 | 15 | 5.82
